This note sets out measurements from US9981975B2, “Pyrrolotriazine compounds as tam inhibitors” (Incyte Corporation, priority 2016, dated 2018).

Format in all cases: biochemical
For one assay, the target named is c-Mer (Homo sapiens (Human), UniProt Q12866). Briefly: TAM Enzymatic Assay (HTRF), Mer. The note with it: 60 min, room temperature. The gist of the method:
(§1)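 HTRF kinase assay in 50 mM HEPES pH 7.5, 10 mM MgCl2, 1 mM EGTA, 0.01% NP-40, 2 mM DTT; compound in DMSO pre-dispensed, enzyme added, reaction started with substrate, 60 min at room temperature in the dark.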
On the technique in general: TR-FRET usually uses a lanthanide donor and a delayed reading to cut background.

A further assay concerns the target phosphor-Axl (Homo sapiens (Human), UniProt P30530). The assay can be described thus: TAM Enzymatic Assay (HTRF), Axl. The note with it: recombinant autophosphorylated Axl, 60 min, room temperature.
The target in a further assay is Tyro3 (Homo sapiens (Human), UniProt Q06418). Briefly: TAM Enzymatic Assay (HTRF), Tyro3. The note with it: Tyro3, 60 min, room temperature. The gist of the method: as §1
Tyro3, sequence (Q06418 41-890): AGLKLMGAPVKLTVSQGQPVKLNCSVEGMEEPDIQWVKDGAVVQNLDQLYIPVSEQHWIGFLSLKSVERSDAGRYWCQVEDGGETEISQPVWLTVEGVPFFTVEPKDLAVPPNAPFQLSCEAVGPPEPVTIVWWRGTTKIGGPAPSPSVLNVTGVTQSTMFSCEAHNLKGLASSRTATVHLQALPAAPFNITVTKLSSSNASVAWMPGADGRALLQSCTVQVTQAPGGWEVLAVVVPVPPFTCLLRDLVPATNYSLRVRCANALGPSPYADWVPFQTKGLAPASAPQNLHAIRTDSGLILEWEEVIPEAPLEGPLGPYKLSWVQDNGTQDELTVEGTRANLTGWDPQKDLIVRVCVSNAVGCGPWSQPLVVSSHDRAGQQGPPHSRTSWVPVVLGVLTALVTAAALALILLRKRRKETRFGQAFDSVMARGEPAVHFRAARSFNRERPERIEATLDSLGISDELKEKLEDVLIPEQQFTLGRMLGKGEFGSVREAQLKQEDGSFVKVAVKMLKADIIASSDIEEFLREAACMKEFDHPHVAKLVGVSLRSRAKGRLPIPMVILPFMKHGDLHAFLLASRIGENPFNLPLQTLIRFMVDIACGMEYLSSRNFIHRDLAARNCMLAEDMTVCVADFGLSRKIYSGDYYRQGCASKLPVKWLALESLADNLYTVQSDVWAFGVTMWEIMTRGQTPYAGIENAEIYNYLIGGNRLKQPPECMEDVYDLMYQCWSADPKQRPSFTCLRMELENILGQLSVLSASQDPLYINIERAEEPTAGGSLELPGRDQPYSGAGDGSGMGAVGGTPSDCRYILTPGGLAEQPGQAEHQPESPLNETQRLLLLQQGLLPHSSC

A value given as a limit tells only on which side of the number the result lay.

c-Mer, sequence (Q12866 21-999): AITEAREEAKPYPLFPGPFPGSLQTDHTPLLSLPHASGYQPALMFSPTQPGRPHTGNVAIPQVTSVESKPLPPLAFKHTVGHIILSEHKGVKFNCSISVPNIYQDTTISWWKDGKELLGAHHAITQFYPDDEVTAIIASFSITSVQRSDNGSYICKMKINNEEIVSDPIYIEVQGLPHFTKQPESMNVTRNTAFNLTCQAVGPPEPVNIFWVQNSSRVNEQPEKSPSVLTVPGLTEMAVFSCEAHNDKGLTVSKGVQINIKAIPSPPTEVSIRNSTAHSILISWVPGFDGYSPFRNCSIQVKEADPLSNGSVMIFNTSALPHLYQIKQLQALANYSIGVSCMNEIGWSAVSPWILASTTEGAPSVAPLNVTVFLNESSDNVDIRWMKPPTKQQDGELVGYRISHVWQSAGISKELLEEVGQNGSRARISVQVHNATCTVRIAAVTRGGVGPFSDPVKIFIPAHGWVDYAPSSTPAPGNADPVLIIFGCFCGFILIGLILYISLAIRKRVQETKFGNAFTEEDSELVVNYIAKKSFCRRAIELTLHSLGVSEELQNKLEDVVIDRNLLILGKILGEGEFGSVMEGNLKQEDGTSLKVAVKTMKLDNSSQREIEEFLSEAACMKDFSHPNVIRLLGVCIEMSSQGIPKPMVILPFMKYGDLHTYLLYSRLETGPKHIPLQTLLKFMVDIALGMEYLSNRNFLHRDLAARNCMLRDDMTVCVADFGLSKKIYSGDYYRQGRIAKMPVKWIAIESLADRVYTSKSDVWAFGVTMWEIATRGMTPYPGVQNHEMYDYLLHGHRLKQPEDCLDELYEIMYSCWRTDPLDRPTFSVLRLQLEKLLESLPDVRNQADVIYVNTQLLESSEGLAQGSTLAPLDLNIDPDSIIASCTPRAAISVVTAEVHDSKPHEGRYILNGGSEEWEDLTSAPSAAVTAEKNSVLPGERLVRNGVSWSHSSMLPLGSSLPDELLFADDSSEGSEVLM
phosphor-Axl, sequence (P30530 26-894): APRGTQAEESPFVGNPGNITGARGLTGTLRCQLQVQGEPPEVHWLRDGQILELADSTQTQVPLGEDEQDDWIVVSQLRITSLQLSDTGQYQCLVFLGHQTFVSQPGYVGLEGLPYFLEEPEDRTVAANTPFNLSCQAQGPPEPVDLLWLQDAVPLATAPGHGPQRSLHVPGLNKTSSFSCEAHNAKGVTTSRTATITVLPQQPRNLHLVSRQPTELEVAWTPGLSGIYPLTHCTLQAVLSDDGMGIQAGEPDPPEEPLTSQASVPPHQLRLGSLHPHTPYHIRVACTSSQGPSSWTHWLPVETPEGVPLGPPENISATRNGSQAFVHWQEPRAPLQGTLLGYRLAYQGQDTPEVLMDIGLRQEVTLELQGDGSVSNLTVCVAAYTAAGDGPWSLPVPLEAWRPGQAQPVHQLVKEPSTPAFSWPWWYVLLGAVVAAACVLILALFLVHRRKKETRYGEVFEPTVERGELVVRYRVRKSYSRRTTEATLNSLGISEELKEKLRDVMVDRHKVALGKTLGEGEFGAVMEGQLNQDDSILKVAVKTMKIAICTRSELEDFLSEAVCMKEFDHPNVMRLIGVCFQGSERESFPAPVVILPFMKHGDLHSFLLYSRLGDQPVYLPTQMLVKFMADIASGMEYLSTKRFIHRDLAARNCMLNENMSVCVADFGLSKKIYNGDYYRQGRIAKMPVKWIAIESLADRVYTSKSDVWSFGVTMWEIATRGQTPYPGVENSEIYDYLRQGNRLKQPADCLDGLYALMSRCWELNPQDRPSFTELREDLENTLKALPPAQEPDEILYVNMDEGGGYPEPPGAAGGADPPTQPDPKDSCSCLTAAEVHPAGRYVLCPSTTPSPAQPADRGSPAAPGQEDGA

With `Nc1ncnn2c(C3CCOCC3)cc(-c3ccc(NC(=O)c4cccn(-c5ccc(F)cc5)c4=O)cc3)c12` [Example 14, N-{4-[4-Amino-7-(tetrahydro-2H-pyran-4-yl)pyrrolo[2,1-f][1,2,4]triazin-5-yl]phenyl}-1-(4-fluorophenyl)-2-oxo-1,2-dihydropyridine-3-carboxamide], the IC50 (in general, the midpoint of a concentration-inhibition curve) against c-Mer was at most 5 nM; at phosphor-Axl, at most 5 nM; against Tyro3 it was 10 to 100 nM.
Regarding `Cc1c(-c2ncccn2)cc(C(=O)Nc2ccc(-c3cc(C4CCN(C(=O)C(C)C)CC4)n4ncnc(N)c34)cc2)c(=O)n1-c1ccccc1` [Example 108, N-{4-[4-Amino-7-(1-isobutyrylpiperidin-4-yl)pyrrolo[2,1-f][1,2,4]triazin-5-yl]phenyl}-6-methyl-2-oxo-1-phenyl-5-pyrimidin-2-yl-1,2-dihydropyridine-3-carboxamide], the results for the IC50 on c-Mer, on phosphor-Axl and against Tyro3 were at most 5 nM, at most 5 nM and 10 to 100 nM, respectively.
As for `CC(C)C(=O)N1CCC(c2cc(-c3ccc(NC(=O)c4cn(C(C)C)c(=O)n(-c5ccn(C)n5)c4=O)cc3)c3c(N)ncnn23)CC1` [Example 88, N-(4-(4-Amino-7-(1-isobutyrylpiperidin-4-yl)pyrrolo[2,1-f][1,2,4]triazin-5-yl)phenyl)-1-isopropyl-3-(1-methyl-1H-pyrazol-3-yl)-2,4-dioxo-1,2,3,4-tetrahydropyrimidine-5-carboxamide], the IC50 against c-Mer is at most 5 nM; at phosphor-Axl, at most 5 nM; at Tyro3, 10 to 100 nM.
Consider `CCn1cc(C(=O)Nc2ccc(-c3cc(C4CCN(C(=O)[C@@H](C)O)CC4)n4ncnc(N)c34)cc2)c(=O)n(-c2ccc(F)cc2)c1=O` [Example 79, (R)—N-(4-(4-Amino-7-(1-(2-hydroxypropanoyl)piperidin-4-yl)pyrrolo[1,2-f][1,2,4]triazin-5-yl)phenyl)-1-ethyl-3-(4-fluorophenyl)-2,4-dioxo-1,2,3,4-tetrahydropyrimidine-5-carboxamide], for which the 50% inhibitory concentration (IC50) against c-Mer was at most 5 nM; at phosphor-Axl, at most 5 nM; against Tyro3, 10 to 100 nM.
On to `Nc1ncnn2c(C3CCN(CCO)CC3)cc(-c3ccc(NC(=O)c4cccn(-c5ccccc5)c4=O)cc3F)c12` [Example 54], for which the IC50 at c-Mer is at most 5 nM; at phosphor-Axl it was at most 5 nM; against Tyro3, 10 to 100 nM.
As for `CCc1cc(-c2ccc(NC(=O)c3cccn([C@H](CC)CO)c3=O)cc2)c2c(N)ncnn12` [Example 4, N-[4-(4-Amino-7-ethylpyrrolo[2,1-f][1,2,4]triazin-5-yl)phenyl]-1-[(1R)-1-(hydroxymethyl)propyl]-2-oxo-1,2-dihydropyridine-3-carboxamide], the IC50 on c-Mer, on phosphor-Axl and against Tyro3 was above 100 nM each time.
With `Cc1c(Br)cc(C(=O)Nc2ccc(-c3cc(C4CCN(C(=O)C(C)C)CC4)n4ncnc(N)c34)cc2)c(=O)n1-c1cccnc1` [Example 130, N-(4-(4-Amino-7-(1-isobutyrylpiperidin-4-yl)pyrrolo[2,1-f][1,2,4]triazin-5-yl)phenyl)-5-bromo-6-methyl-2-oxo-2H-[1,3′-bipyridine]-3-carboxamide], the concentration for half-maximal inhibition (IC50) is at most 5 nM on c-Mer, at most 5 nM at phosphor-Axl and above 100 nM on Tyro3.
On to `CC(C)C(=O)N1CCC(c2cc(-c3ccc(NC(=O)c4cn(C(C)C)c(=O)n(-c5ccccc5)c4=O)cc3F)c3c(N)ncnn23)CC1` [Example 75, N-(4-(4-Amino-7-(1-isobutyrylpiperidin-4-yl)pyrrolo[1,2-f][1,2,4]triazin-5-yl)-3-fluorophenyl)-1-isopropyl-2,4-dioxo-3-phenyl-1,2,3,4-tetrahydropyrimidine-5-carboxamide], for which the concentration for half-maximal inhibition (IC50) was at most 5 nM against c-Mer, at most 5 nM at phosphor-Axl and 10 to 100 nM against Tyro3.
For the compound `CN1CCC(c2cc(-c3ccc(NC(=O)c4cccn(-c5ccc(F)cc5)c4=O)cc3F)c3c(N)ncnn23)CC1` [Example 23, N-{4-[4-Amino-7-(1-methylpiperidin-4-yl)pyrrolo[2,1-f][1,2,4]triazin-5-yl]-3-fluorophenyl}-1-(4-fluorophenyl)-2-oxo-1,2-dihydropyridine-3-carboxamide], the IC50 at c-Mer is at most 5 nM; on phosphor-Axl, at most 5 nM; on Tyro3, 10 to 100 nM.
Consider `N#C[C@H]1CC[C@@H](c2cc(-c3ccc(NC(=O)c4cccn(-c5ccccc5)c4=O)cc3F)c3c(N)ncnn32)CC1` [Example 30, N-{4-[4-Amino-7-(cis-4-cyanocyclohexyl)pyrrolo[2,1-f][1,2,4]triazin-5-yl]-3-fluorophenyl}-2-oxo-1-phenyl-1,2-dihydropyridine-3-carboxamide], for which the IC50 at c-Mer is at most 5 nM; on phosphor-Axl it was at most 5 nM; against Tyro3, 10 to 100 nM.
Regarding `CC(C)n1cc(C(=O)Nc2ccc(-c3cc(C4CCN(C(=O)N(C)C)CC4)n4ncnc(N)c34)cc2)c(=O)n(-c2cccc(F)c2)c1=O` [Example 70, N-(4-(4-Amino-7-(1-(dimethylcarbamoyl)piperidin-4-yl)pyrrolo[1,2-f][1,2,4]triazin-5-yl)phenyl)-3-(3-fluorophenyl)-1-isopropyl-2,4-dioxo-1,2,3,4-tetrahydropyrimidine-5-carboxamide], the IC50 is at most 5 nM against c-Mer, at most 5 nM at phosphor-Axl and 10 to 100 nM at Tyro3.
For the compound `CC(C)n1cc(C(=O)Nc2ccc(-c3cc(C4CCN(C(=O)N(C)C)CC4)n4ncnc(N)c34)cc2)c(=O)n(-c2ccc(F)cc2)c1=O` [Example 65, N-(4-(4-Amino-7-(1-(dimethylcarbamoyl)piperidin-4-yl)pyrrolo[1,2-f][1,2,4]triazin-5-yl)phenyl)-3-(4-fluorophenyl)-1-isopropyl-2,4-dioxo-1,2,3,4-tetrahydropyrimidine-5-carboxamide], the results for the IC50 on c-Mer, on phosphor-Axl and against Tyro3 were at most 5 nM, at most 5 nM and 10 to 100 nM, respectively.
Regarding `CC(C)C(=O)N1CCC(c2cc(-c3ccc(NC(=O)c4cn(C(C)C)c(=O)n(-c5cccnc5)c4=O)cc3)c3c(N)ncnn23)CC1` [Example 78, N-(4-(4-Amino-7-(1-isobutyrylpiperidin-4-yl)pyrrolo[1,2-f][1,2,4]triazin-5-yl)phenyl)-1-isopropyl-2,4-dioxo-3-(pyridin-3-yl)-1,2,3,4-tetrahydropyrimidine-5-carboxamide], the IC50 against c-Mer was at most 5 nM; at phosphor-Axl, at most 5 nM; on Tyro3, 10 to 100 nM.
Consider `Cc1c(C(F)F)cc(C(=O)Nc2ccc(-c3cc(C4CCN(C(=O)C(C)C)CC4)n4ncnc(N)c34)cc2)c(=O)n1-c1ccccn1` [Example 127, N-(4-(4-Amino-7-(1-isobutyrylpiperidin-4-yl)pyrrolo[2,1-f][1,2,4]triazin-5-yl)phenyl)-5-(difluoromethyl)-6-methyl-2-oxo-2H-[1,2′-bipyridine]-3-carboxamide], for which the IC50 against c-Mer was at most 5 nM; on phosphor-Axl, at most 5 nM; against Tyro3, above 100 nM.
Regarding `Cc1c(-c2cscn2)cc(C(=O)Nc2ccc(-c3cc(C4CCN(C(=O)C(C)C)CC4)n4ncnc(N)c34)cc2)c(=O)n1-c1cncc(F)c1` [Example 103, N-(4-(4-Amino-7-(1-isobutyrylpiperidin-4-yl)pyrrolo[2,1-f][1,2,4]triazin-5-yl)phenyl)-5′-fluoro-6-methyl-2-oxo-5-(thiazol-4-yl)-2H-[1,3′-bipyridine]-3-carboxamide], the half-maximal inhibitory concentration (IC50) was at most 5 nM at c-Mer, at most 5 nM on phosphor-Axl and 10 to 100 nM against Tyro3.
Consider `COCCN1CCC(c2cc(-c3ccc(NC(=O)c4cccn(-c5ccc(F)cc5)c4=O)cc3F)c3c(N)ncnn23)CC1` [Example 51, N-(4-{4-Amino-7-[1-(2-methoxyethyl)piperidin-4-yl]pyrrolo[2,1-f][1,2,4]triazin-5-yl}-3-fluorophenyl)-1-(4-fluorophenyl)-2-oxo-1,2-dihydropyridine-3-carboxamide], for which the IC50 against c-Mer was at most 5 nM; at phosphor-Axl, at most 5 nM; at Tyro3, 5 to 10 nM.
As for `Cc1c(-c2ncco2)cc(C(=O)Nc2ccc(-c3cc(C4CCN(C(=O)C(C)C)CC4)n4ncnc(N)c34)cc2)c(=O)n1-c1ccccn1` [Example 126, N-(4-(4-Amino-7-(1-isobutyrylpiperidin-4-yl)pyrrolo[2,1-f][1,2,4]triazin-5-yl)phenyl)-6-methyl-5-(oxazol-2-yl)-2-oxo-2H-[1,2′-bipyridine]-3-carboxamide], the IC50 against c-Mer is at most 5 nM; at phosphor-Axl, at most 5 nM; on Tyro3, above 100 nM.
Take `CC(C)C(=O)N1CCC(c2cc(-c3ccc(NC(=O)c4nn(C(C)C)c(=O)n(-c5ccccc5)c4=O)cc3)c3c(N)ncnn23)CC1` [Example 96, N-(4-(4-Amino-7-(1-isobutyrylpiperidin-4-yl)pyrrolo[1,2-f][1,2,4]triazin-5-yl)phenyl)-2-isopropyl-3,5-dioxo-4-phenyl-2,3,4,5-tetrahydro-1,2,4-triazine-6-carboxamide]: the IC50 against c-Mer is at most 5 nM; at phosphor-Axl, at most 5 nM; against Tyro3, 10 to 100 nM.
With `CC(C)C(=O)N1CCC(c2cc(-c3ccc(NC(=O)c4cc(C#C[C@H](C)O)cn(-c5ccccc5)c4=O)cc3)c3c(N)ncnn23)CC1` [Example 120, (S)—N-(4-(4-Amino-7-(1-isobutyrylpiperidin-4-yl)pyrrolo[2,1-f][1,2,4]triazin-5-yl)phenyl)-5-(3-hydroxybut-1-yn-1-yl)-2-oxo-1-phenyl-1,2-dihydropyridine-3-carboxamide], the results for the IC50 against c-Mer, at phosphor-Axl and against Tyro3 were at most 5 nM, at most 5 nM and above 100 nM, respectively.
For the compound `CC(C)n1cc(C(=O)Nc2ccc(-c3cc(C4CCN(C)CC4)n4ncnc(N)c34)cc2)c(=O)n(-c2ccccc2)c1=O` [Example 64, N-(4-(4-Amino-7-(1-methylpiperidin-4-yl)pyrrolo[1,2-f][1,2,4]triazin-5-yl)phenyl)-1-isopropyl-2,4-dioxo-3-phenyl-1,2,3,4-tetrahydropyrimidine-5-carboxamide], the IC50 against c-Mer is at most 5 nM; at phosphor-Axl, at most 5 nM; against Tyro3, 10 to 100 nM.
